Test results published in US10428056B2, “Heterocyclic compound” (Takeda Pharmaceutical Company Limited, priority 2015, dated 2019).
pEC50: −log10 of the molar value.

Columns and labels:
[1] = target: T1, human M1 receptor (hCHRM1) (Homo sapiens, UniProt P11229); experiment: Measurement of M1 receptor positive allosteric modulator (M1PAM) activity, Ca fluorescence by FDSS/μ cell (Experimental Example 2); format: cell-based; conditions: inflection point of concentration-dependent curve, CHO-K1 cells expressing hCHRM1, acetylcholine at EC20 (0.8-1.0 nM), read-out: IP value
T1 construct: expressed in transfected cells; host or cells: CHO-K1
T1 sequence (P11229 1-460): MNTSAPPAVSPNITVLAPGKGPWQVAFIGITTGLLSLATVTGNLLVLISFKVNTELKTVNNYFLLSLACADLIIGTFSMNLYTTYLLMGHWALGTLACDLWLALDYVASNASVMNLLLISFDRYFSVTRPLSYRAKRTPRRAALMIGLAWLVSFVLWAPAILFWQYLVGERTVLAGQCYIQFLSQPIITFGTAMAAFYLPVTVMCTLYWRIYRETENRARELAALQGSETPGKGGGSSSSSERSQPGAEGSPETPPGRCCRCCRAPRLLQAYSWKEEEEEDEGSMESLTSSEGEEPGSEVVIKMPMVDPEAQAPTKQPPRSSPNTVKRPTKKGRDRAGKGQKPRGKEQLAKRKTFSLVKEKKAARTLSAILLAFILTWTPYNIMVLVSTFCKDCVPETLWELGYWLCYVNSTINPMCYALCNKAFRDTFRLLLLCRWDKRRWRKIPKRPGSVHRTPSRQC
Experimental: (§1) Measurement of M1 Receptor Positive Allosteric Modulator (M1PAM) Activity
(§2) The activity of a test compound in the presence of acetylcholine at EC20 concentration (final concentration 0.8-1.0 nM), which affords an action corresponding to about 20% of the maximum activity, was measured as PAM activity. The method is as follows. CHO-K1 cells stably expressing a human M1 receptor (hCHRM1) were plated on a 384-well black clear bottom plate (BD Falcon) at 5,000 cells/well, and cultured in an incubator at 37° C., 5% CO2 for 1 day. […] A test compound prepared by diluting with assay buffer containing 3.2-4.0 nM acetylcholine was added at 10 μL/well, and the fluorescence was measured by FDSS/μ cell (Hamamatsu Photonics K.K.) for 1 min every 1 second. With the definition that the amount of change in the fluorescence on addition of acetylcholine (final concentration 1 μM) is 100% and that on addition of DMSO instead of a test compound is 0%, the activity (%) of the test compound was calculated, and the inflection point in the concentration-dependent curve of the test compound was calculated as IP values.

[2] = system: Scopolamine-induced memory deficits models; experiment: Novel object recognition test (Experimental Example 4); format: in vivo, male Long-Evans rats; conditions: 10 mg/kg oral single dose, scopolamine 0.1 mg/kg s.c.; retention trial 4 hr after acquisition; mean±standard error
Experimental: Novel Object Recognition Test Novel object recognition test is comprised of two trials called the acquisition and the retention trials. Scopolamine-induced memory deficits models were used for the test, and animals used were male Long-Evans rats. On the day before the test, for acclimation, the rats were allowed to freely move about the test box (40×40×50 cm) for 10 minutes. On the test day, the rats were acclimated to the test room for about 1 hr prior to the test. The test compounds were orally administered to the rats in a single dose a given time before the acquisition trial. For induction of learning and memory deficits, scopolamine (0.1 mg/kg) was subcutaneously administered into the rats 30 min before the acquisition trial. For the acquisition trial, two identical objects (A1, A2) were placed in the test box. The rats were put in the test box for 3 min, and the duration exploring each object was measured. The retention trial was performed 4 hr after the acquisition trial. […] The duration for exploring each object in the acquisition trial and the retention trial was measured, and the exploration rate of novel object was calculated. The exploration rate of novel object was expressed as (the duration exploring the novel object)/[(the duration exploring the novel object)+(the duration exploring the familiar object)]×100(%) at mean±standard error.

[3] = target: T1, human M1 receptor (hCHRM1); experiment: Measurement of M1 receptor positive allosteric modulator (M1PAM) activity, Ca fluorescence by FLIPRtetra (Experimental Example 1); format: cell-based; conditions: inflection point of concentration-dependent curve, CHO-K1 cells expressing hCHRM1, acetylcholine at EC20 (0.8-1.0 nM), read-out: IP value
Experimental: as §1
as §2, with “FLIPRtetra (Molecular Devices)” for “FDSS/μ cell (Hamamatsu Photonics K.K.)”

SMILES: Cc1c(Cc2ccc(-n3cccn3)nc2)cc2c(c1Cl)OCN([C@H]1CCC[C@@H]1O)C2=O (single isomer, unassigned) [Example 97, 8-chloro-3-(trans-2-hydroxycyclopentyl)-7-methyl-6-((6-(1H-pyrazol-1-yl)pyridin-3-yl)methyl)-2,3-dihydro-4H-1,3-benzoxazin-4-one]
- pEC50 [1]: 8.17

SMILES: Cc1ccc(Cc2cc3c(cc2C)OCN([C@H]2CCCC[C@@H]2O)C3=O)cn1 (single isomer, unassigned) [Example 28, 3-(trans-2-hydroxycyclohexyl)-7-methyl-6-((6-methylpyridin-3-yl)methyl)-2,3-dihydro-4H-1,3-benzoxazin-4-one]
- exploration rate of novel object (%) [2]: 56.0±2.2%

SMILES: Cc1cc2c(cc1Cc1ccc(Cl)nc1)C(=O)N([C@H]1CCCC[C@@H]1O)CO2 (relative stereo) [Example 62, 6-((6-chloropyridin-3-yl)methyl)-3-(trans-2-hydroxycyclohexyl)-7-methyl-2,3-dihydro-4H-1,3-benzoxazin-4-one]
- pEC50 [3]: 7.57
